This note sets out measurements from ChEMBL document CHEMBL4418298, “Cyp8b1 and uses thereof in therapeutic and diagnostic methods” (2014).

Structures are written as SMILES.

This assay has as its target T1, 7-alpha-hydroxycholest-4-en-3-one 12-alpha-hydroxylase (Homo sapiens, UniProt Q9UNU6).
T1 sequence (Q9UNU6 whole entry): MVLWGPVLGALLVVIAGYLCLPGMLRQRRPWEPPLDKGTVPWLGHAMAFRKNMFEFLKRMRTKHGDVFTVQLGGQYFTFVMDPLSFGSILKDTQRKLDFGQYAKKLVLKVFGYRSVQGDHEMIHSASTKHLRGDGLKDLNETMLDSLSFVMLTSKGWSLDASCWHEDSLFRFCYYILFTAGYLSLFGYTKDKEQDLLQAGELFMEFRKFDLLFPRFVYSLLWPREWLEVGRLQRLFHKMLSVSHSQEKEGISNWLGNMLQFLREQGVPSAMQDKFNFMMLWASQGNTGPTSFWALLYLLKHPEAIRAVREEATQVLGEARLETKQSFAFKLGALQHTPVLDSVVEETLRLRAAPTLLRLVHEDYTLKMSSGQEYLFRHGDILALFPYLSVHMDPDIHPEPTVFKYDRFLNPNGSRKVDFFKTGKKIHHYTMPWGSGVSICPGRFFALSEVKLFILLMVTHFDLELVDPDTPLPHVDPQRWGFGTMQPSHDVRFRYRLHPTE
The assay can be described thus: Inhibition of CYP8B1 in human liver microsomes using D7-7alpha-hydroxy-4-cholesten-3-one as substrate preincubated for 20 mins followed by substrate addition in presence of NADPH by UPLC-ESI-MS/MS analysis. In general terms: Microsomes from liver hold many membrane-bound enzymes, among them those of drug oxidation.

The IC50 is the midpoint of a concentration-inhibition curve.

With `CC(C)CCC[C@@H](C)[C@H]1CC[C@H]2[C@@H]3[C@H](O)C[C@@H]4C[C@H](O)CC[C@]4(C)[C@H]3C[C@H](O)[C@]12C`, the half-inhibitory concentration (IC50) came out at 7600 nM. As to `N[C@@H]1C[C@H]1c1ccccc1.N[C@H]1C[C@@H]1c1ccccc1` (racemic) [TRANYLCYPROMINE], the IC50 was determined as 7800 nM. For `Clc1ccccc1C(c1ccccc1)(c1ccccc1)n1ccnc1` [CLOTRIMAZOLE], the half-inhibitory concentration (IC50) stood at 800 nM. The figure for `Clc1ccc(COC(Cn2ccnc2)c2ccc(Cl)cc2Cl)cc1` (stereo not drawn) [ECONAZOLE] is 310 nM. Turning to `CCC(C)n1ncn(-c2ccc(N3CCN(c4ccc(OC[C@H]5CO[C@](Cn6cncn6)(c6ccc(Cl)cc6Cl)O5)cc4)CC3)cc2)c1=O` (stereo partly drawn) [ITRACONAZOLE], the half-maximal inhibitory concentration (IC50) was 4700 nM.

For `CC(=O)N1CCN(c2ccc(OC[C@H]3CO[C@](Cn4ccnc4)(c4ccc(Cl)cc4Cl)O3)cc2)CC1` [KETOCONAZOLE], the 50% inhibitory concentration (IC50) stood at 2200 nM. With `Clc1ccc(COC(Cn2ccnc2)c2ccc(Cl)cc2Cl)c(Cl)c1` (stereo not drawn) [MICONAZOLE], the IC50 came out at 1500 nM. Take `CC[C@@H]([C@H](C)O)n1ncn(-c2ccc(N3CCN(c4ccc(OC[C@@H]5CO[C@@](Cn6cncn6)(c6ccc(F)cc6F)C5)cc4)CC3)cc2)c1=O` [POSACONAZOLE]: the 50% inhibitory concentration (IC50) was 3800 nM.
